Experimental data taken from patent US20250017874A1, “PHARMACEUTICAL COMPOSITIONS FOR USE IN REDUCING HYPERPIGMENTATION” (Caliway Biopharmaceuticals Co., Ltd., priority 2023, published 2025).
Where two headings read alike, the source gives them in different places.

Legend:
Assay type in all cases: cell-based, mouse
B16-F10 cell line [1] = conditions: for Relative cell viability (%): mouse
Description: (§1) Table 23 below lists the study design for evaluating EC50 values of IM01, which contains 4-[(E)-2-(3,5-dihydroxyphenyl)ethenyl]benzene-1,3-diol.
(§2) Table 25 below lists the study design for evaluating EC50 values of IM01, which contains 4-[(E)-2-(3,5-dihydroxyphenyl)ethenyl]benzene-1,3-diol.

B16-F10 cells [2] = experiment: In vitro efficacy comparison: melanin content, α-MSH 0.5 h then test article 30 h (Example 5); conditions: TA 918.27 μM; α-MSH 0.5 h then TA 30 h
Procedure: B16-F10 cells were seeded in a 96-well plate. Except the vehicle group, cells of the other groups were cultured in the presence of α-MSH for 0.5 hours first. The compositions for examination were then added to the culture medium and the cells were further cultured for 30 hours. The rest of the experimental conditions and procedures were similar to those described in Example 3. Afterwards, the cells were collected to evaluate the effect of 4-[(E)-2-(3,5-dihydroxyphenyl)ethenyl]benzene-1,3-diol compositions (IM01 Group) and Arbutin and 5-[(E)-2-(4-hydroxyphenyl)ethenyl]benzene-1,3-diol (IM00 Group) compositions on reducing melanin levels. The experimental design is summarized in Table 18 and results shown in both Table 18 and FIG. 5.

B16-F10 cell line [3] = experiment: In vitro whitening efficacy: melanin content (Example 7); conditions: Table 26
Description: as §1, §2

B16-F10 cells [4] = experiment: In vitro melanin content versus arbutin and hydroquinone (Example 6)
Procedure: Except the vehicle group, cells of the other groups were cultured with α-MSH for 24 hours first. The compositions for investigation (see Tables 19 and 20) were then added to the culture medium and the cells were further cultured for 24 hours. The rest of the experimental operation process was similar to that described in Example 3. […] [table] [table]

OC[C@H]1O[C@@H](Oc2ccc(O)cc2)[C@H](O)[C@@H](O)[C@@H]1O [Arbutin, reference compound]
Relative cell viability (%) (B16-F10 cell line [1]; 450 μM): 100.8 ± 1.2%
Relative cell viability (%) (B16-F10 cell line [1]; 900 μM): 93.7 ± 1.6%
Melanin content (%) Mean (B16-F10 cells [2]): 95.8%
Melanin content (%) (B16-F10 cell line [3]; TA 450 μM (Arbutin/L)): 78.5 ± 1.1%
Melanin content (%) (B16-F10 cell line [3]; TA 900 μM (Arbutin/H)): 67.0 ± 2.8%
Melanin content (%) Mean ± SD (B16-F10 cells [4]; TA 450 μM, Table 21 experiment): 76.1 ± 6.3%
Melanin content (%) Mean ± SD (B16-F10 cells [4]; TA 900 μM, Table 21 experiment): 60.9 ± 4.5%
Melanin content (%) Mean ± SD (B16-F10 cells [4]; TA 900 μM, Table 22 experiment): 62.8 ± 1.8%
Melanin content (%) Mean ± SD (B16-F10 cells [4]; TA 1800 μM, Table 22 experiment): 47.1 ± 0.3%

Oc1ccc(O)cc1 [Hydroquinone, hydroquinone, reference compound]
Cytotoxicity (B16-F10 cell line [1]): high cytotoxicity
Relative cell viability (%) (B16-F10 cell line [1]; 60 μM): 88.2 ± 6.0%
Melanin content (%) (B16-F10 cell line [3]; TA 60 μM (/L of IM01 and HQ), HQ vehicle DDW): 34.6 ± 2.8%
Melanin content (%) (B16-F10 cell line [3]; TA 120 μM (/H of IM01 and HQ), HQ vehicle DDW): 40.5 ± 3.7%
Melanin content (%) Mean ± SD (B16-F10 cells [4]; TA 120 μM, Table 21 experiment): 61.5 ± 4.6%
